In ChEMBL document CHEMBL5042477, “Potent Cyclic Peptide Inhibitors of FXIIa Discovered by mRNA Display with Genetic Code Reprogramming” (J Med Chem, 2021):
Where a SMILES comes first, the peptide text is derived from it. Bridges are numbered along the chain shown (N, C = ends). [ ]: non-standard residue; d: D form. Phe(3-CN) = N#Cc1cccc(C[C@H](N)C(=O)O)c1; Phe(3-OMe) = COc1cccc(C[C@H](N)C(=O)O)c1; Phe(3-F) = N[C@@H](Cc1cccc(F)c1)C(=O)O; Phe(3-Me) = Cc1cccc(C[C@H](N)C(=O)O)c1; 1Nal = N[C@@H](Cc1cccc2ccccc12)C(=O)O; Phe(2-F) = N[C@@H](Cc1ccccc1F)C(=O)O; hTyr = N[C@@H](CCc1ccc(O)cc1)C(=O)O; hArg = N=C(N)NCCCC[C@H](N)C(=O)O; hPhe = N[C@@H](CCc1ccccc1)C(=O)O

Target: T1, Coagulation factor XII (Homo sapiens, UniProt P00748)
T1 sequence (P00748 whole entry): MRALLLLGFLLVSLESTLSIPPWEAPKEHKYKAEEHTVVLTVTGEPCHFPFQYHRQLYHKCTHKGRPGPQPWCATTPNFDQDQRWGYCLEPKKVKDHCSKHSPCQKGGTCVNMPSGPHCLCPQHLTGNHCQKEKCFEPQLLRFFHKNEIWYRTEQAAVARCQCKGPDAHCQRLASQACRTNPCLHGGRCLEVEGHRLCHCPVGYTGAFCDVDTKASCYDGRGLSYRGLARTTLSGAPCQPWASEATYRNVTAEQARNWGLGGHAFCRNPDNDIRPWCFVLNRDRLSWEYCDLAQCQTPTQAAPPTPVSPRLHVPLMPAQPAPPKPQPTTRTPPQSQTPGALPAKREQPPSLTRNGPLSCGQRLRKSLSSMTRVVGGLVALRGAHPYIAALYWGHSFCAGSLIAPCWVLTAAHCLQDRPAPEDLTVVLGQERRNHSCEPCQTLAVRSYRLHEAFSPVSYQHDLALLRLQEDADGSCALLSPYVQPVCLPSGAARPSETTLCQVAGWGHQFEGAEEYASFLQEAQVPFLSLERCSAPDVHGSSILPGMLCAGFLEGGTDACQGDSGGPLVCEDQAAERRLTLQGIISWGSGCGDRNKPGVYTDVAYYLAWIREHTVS
Assay: Inhibition of human factor 12a using H-D-Pro-Phe-Arg-p-nitroanilide as chromogenic substrate assessed as liberation of p-nitroaniline measured every 5 mins for 60 min by multimode plate reader analysis

SMILES	IC50 [nM]
CC(C)C[C@@H]1NC(=O)[C@H](Cc2ccc(O)cc2)NC(=O)CSC[C@@H](C(N)=O)NC(=O)CNC(=O)CNC(=O)[C@H](CCCNC(=N)N)NC(=O)[C@H](CC(=O)O)NC(=O)[C@H](CCCCN)NC(=O)[C@@H]2CCCN2C(=O)[C@H](CCCNC(=N)N)NC(=O)[C@H](Cc2cccc3ccccc23)NC(=O)[C@H](CCCNC(=N)N)NC1=O ({CH2CO}-YLR[1Nal]RPKDRGGC-NH2; thioether N-12)	68
COc1cccc(C[C@@H]2NC(=O)CSC[C@@H](C(N)=O)NC(=O)CNC(=O)CNC(=O)[C@H](CCCNC(=N)N)NC(=O)[C@H](CC(=O)O)NC(=O)[C@H](CCCCN)NC(=O)[C@@H]3CCCN3C(=O)[C@H](CCCNC(=N)N)NC(=O)[C@H](Cc3ccccc3)NC(=O)[C@H](CCCNC(=N)N)NC(=O)[C@H](CC(C)C)NC2=O)c1 ({CH2CO}-[Phe(3-OMe)]LRFRPKDRGGC-NH2; thioether N-12)	640
CC(C)C[C@@H]1NC(=O)[C@H](Cc2ccc(O)cc2)NC(=O)CSC[C@@H](C(N)=O)NC(=O)CNC(=O)CNC(=O)[C@H](CCCNC(=N)N)NC(=O)[C@H](CC(=O)O)NC(=O)[C@H](CCCCN)NC(=O)[C@@H]2CCCN2C(=O)[C@H](CCCNC(=N)N)NC(=O)[C@H](Cc2ccccc2F)NC(=O)[C@H](CCCNC(=N)N)NC1=O ({CH2CO}-YLR[Phe(2-F)]RPKDRGGC-NH2; thioether N-12)	53
CC(C)C[C@@H]1NC(=O)[C@H](Cc2ccc(O)cc2)NC(=O)CSC[C@@H](C(N)=O)NC(=O)CNC(=O)CNC(=O)[C@H](CCCNC(=N)N)NC(=O)[C@H](CC(=O)O)NC(=O)[C@H](CCCCN)NC(=O)[C@@H]2CCCN2C(=O)[C@H](CCCNC(=N)N)NC(=O)[C@H](Cc2ccccc2)NC(=O)[C@H](CCCCNC(=N)N)NC1=O ({CH2CO}-YL[hArg]FRPKDRGGC-NH2; thioether N-12)	73
CC(C)C[C@@H]1NC(=O)[C@H](Cc2cccc(C#N)c2)NC(=O)CSC[C@@H](C(N)=O)NC(=O)CNC(=O)CNC(=O)[C@H](CCCNC(=N)N)NC(=O)[C@H](CC(=O)O)NC(=O)[C@H](CCCCN)NC(=O)[C@@H]2CCCN2C(=O)[C@H](CCCNC(=N)N)NC(=O)[C@H](Cc2ccccc2)NC(=O)[C@H](CCCNC(=N)N)NC1=O ({CH2CO}-[Phe(3-CN)]LRFRPKDRGGC-NH2; thioether N-12)	3100
COc1ccc(C[C@@H]2NC(=O)[C@H](CCCNC(=N)N)NC(=O)[C@H](CC(C)C)NC(=O)[C@H](Cc3ccc(O)cc3)NC(=O)CSC[C@@H](C(N)=O)NC(=O)CNC(=O)CNC(=O)[C@H](CCCNC(=N)N)NC(=O)[C@H](CC(=O)O)NC(=O)[C@H](CCCCN)NC(=O)[C@@H]3CCCN3C(=O)[C@H](CCCNC(=N)N)NC2=O)cc1 ({CH2CO}-YLRY(Me)RPKDRGGC-NH2; thioether N-12)	560
CC(C)C[C@@H]1NC(=O)[C@H](CCCNC(=N)N)NC(=O)[C@H](CC(C)C)NC(=O)[C@H](Cc2ccc(O)cc2)NC(=O)CSC[C@@H](C(N)=O)NC(=O)CNC(=O)CNC(=O)[C@H](CCC(N)=O)NC(=O)[C@H](CC(N)=O)NC(=O)[C@H]([C@@H](C)O)NC(=O)[C@@H]2CCCN2C(=O)[C@H](C)NC1=O ({CH2CO}-YLRLAPTNQGGC-NH2; thioether N-12)	60000
CC(C)C[C@@H]1NC(=O)[C@H](Cc2ccc(O)cc2)NC(=O)CSC[C@@H](C(N)=O)NC(=O)CNC(=O)CNC(=O)[C@H](CCC(N)=O)NC(=O)[C@H](CC(N)=O)NC(=O)[C@H](C)NC(=O)[C@@H]2CCCN2C(=O)[C@H](CCCCN)NC(=O)[C@H](CC(C)C)NC(=O)[C@H](CCCNC(=N)N)NC1=O ({CH2CO}-YLRLKPANQGGC-NH2; thioether N-12)	450
CC(C)C[C@@H]1NC(=O)[C@H](Cc2ccc(O)cc2)NC(=O)CSC[C@@H](C(N)=O)NC(=O)CNC(=O)CNC(=O)[C@H](CCCNC(=N)N)NC(=O)[C@H](CC(=O)O)NC(=O)[C@H](CCCCN)NC(=O)[C@@H]2CCCN2C(=O)[C@H](CCCNC(=N)N)NC(=O)[C@H](CCc2ccc(O)cc2)NC(=O)[C@H](CCCNC(=N)N)NC1=O ({CH2CO}-YLR[hTyr]RPKDRGGC-NH2; thioether N-12)	560
CC(C)C[C@@H]1NC(=O)[C@H](Cc2ccc(O)cc2)NC(=O)CSC[C@@H](C(N)=O)NC(=O)CNC(=O)CNC(=O)[C@H](CCCNC(=N)N)NC(=O)[C@H](CC(=O)O)NC(=O)[C@H](CCCCN)NC(=O)[C@@H]2CCCN2C(=O)[C@H](CCCNC(=N)N)NC(=O)[C@H](Cc2ccccc2)NC(=O)[C@H](CCCCN)NC1=O ({CH2CO}-YLKFRPKDRGGC-NH2; thioether N-12)	300
CC(C)C[C@@H]1NC(=O)[C@H](C(C)C)NC(=O)CSC[C@@H](C(N)=O)NC(=O)CNC(=O)CNC(=O)[C@H](CCCNC(=N)N)NC(=O)[C@H](CC(=O)O)NC(=O)[C@H](CCCCN)NC(=O)[C@@H]2CCCN2C(=O)[C@H](CCCNC(=N)N)NC(=O)[C@H](Cc2ccccc2)NC(=O)[C@H](CCCNC(=N)N)NC1=O ({CH2CO}-VLRFRPKDRGGC-NH2; thioether N-12)	210000
CC(C)C[C@@H]1NC(=O)[C@H](CCc2ccccc2)NC(=O)CSC[C@@H](C(N)=O)NC(=O)CNC(=O)CNC(=O)[C@H](CCCNC(=N)N)NC(=O)[C@H](CC(=O)O)NC(=O)[C@H](CCCCN)NC(=O)[C@@H]2CCCN2C(=O)[C@H](CCCNC(=N)N)NC(=O)[C@H](Cc2ccccc2)NC(=O)[C@H](CCCNC(=N)N)NC1=O ({CH2CO}-[hPhe]LRFRPKDRGGC-NH2; thioether N-12)	410000
CC(C)C[C@@H]1NC(=O)[C@H](Cc2ccc(O)cc2)NC(=O)CSC[C@@H](C(N)=O)NC(=O)CNC(=O)[C@H](C)NC(=O)[C@H](CCC(N)=O)NC(=O)[C@H](CC(N)=O)NC(=O)[C@H]([C@@H](C)O)NC(=O)[C@@H]2CCCN2C(=O)[C@H](CCCCN)NC(=O)[C@H](CC(C)C)NC(=O)[C@H](CCCNC(=N)N)NC1=O ({CH2CO}-YLRLKPTNQAGC-NH2; thioether N-12)	21000
CC(C)C[C@@H]1NC(=O)[C@H](Cc2ccc(O)cc2)NC(=O)CSC[C@@H](C(N)=O)NC(=O)[C@H](C)NC(=O)CNC(=O)[C@H](CCCNC(=N)N)NC(=O)[C@H](CC(=O)O)NC(=O)[C@H](CCCCN)NC(=O)[C@@H]2CCCN2C(=O)[C@H](CCCNC(=N)N)NC(=O)[C@H](Cc2ccccc2)NC(=O)[C@H](CCCNC(=N)N)NC1=O ({CH2CO}-YLRFRPKDRGAC-NH2; thioether N-12)	15000
CC(C)C[C@@H]1NC(=O)[C@H](Cc2ccc(O)cc2)NC(=O)CSC[C@@H](C(N)=O)NC(=O)[C@H](C)NC(=O)CNC(=O)[C@H](CCC(N)=O)NC(=O)[C@H](CC(N)=O)NC(=O)[C@H]([C@@H](C)O)NC(=O)[C@@H]2CCCN2C(=O)[C@H](CCCCN)NC(=O)[C@H](CC(C)C)NC(=O)[C@H](CCCNC(=N)N)NC1=O ({CH2CO}-YLRLKPTNQGAC-NH2; thioether N-12)	73000
CC(C)C[C@@H]1NC(=O)[C@H](Cc2cccc(F)c2)NC(=O)CSC[C@@H](C(N)=O)NC(=O)CNC(=O)CNC(=O)[C@H](CCCNC(=N)N)NC(=O)[C@H](CC(=O)O)NC(=O)[C@H](CCCCN)NC(=O)[C@@H]2CCCN2C(=O)[C@H](CCCNC(=N)N)NC(=O)[C@H](Cc2ccccc2)NC(=O)[C@H](CCCNC(=N)N)NC1=O ({CH2CO}-[Phe(3-F)]LRFRPKDRGGC-NH2; thioether N-12)	650
Cc1cccc(C[C@@H]2NC(=O)[C@H](CCCNC(=N)N)NC(=O)[C@H](CC(C)C)NC(=O)[C@H](Cc3ccc(O)cc3)NC(=O)CSC[C@@H](C(N)=O)NC(=O)CNC(=O)CNC(=O)[C@H](CCCNC(=N)N)NC(=O)[C@H](CC(=O)O)NC(=O)[C@H](CCCCN)NC(=O)[C@@H]3CCCN3C(=O)[C@H](CCCNC(=N)N)NC2=O)c1 ({CH2CO}-YLR[Phe(3-Me)]RPKDRGGC-NH2; thioether N-12)	73
